Measurements reported in ChEMBL document CHEMBL2169821, “Design, synthesis, and evaluation of pH-dependent hydrolyzable emetine analogues as treatment for prostate cancer” (J Med Chem, 2012).
The source made the active and inactive calls. No cut-off for these calls is given here.

Experiments:
[1] = Chemical stability of the compound in phosphate buffer up to 48 hrs at pH 5.5 by HPLC analysis; type: physicochemical; details: pH 5.5, 48 h
[2] = test system: PC-3; assay: Cytotoxicity against human PC3 cells measured on day 5 by MTT assay; type: functional, cell-based
[3] = Chemical stability of the compound in phosphate buffer up to 48 hrs at pH 6.5 by HPLC analysis; type: physicochemical; details: pH 6.5, 48 h
[4] = test system: PC-3; assay: Cytotoxicity against human PC3 cells measured on day 3 by MTT assay; type: functional, cell-based
[5] = test system: LNCaP; assay: Cytotoxicity against human LNCAP cells measured on day 7 by MTT assay; type: functional, cell-based; details: for IC50: Homo sapiens, LNCaP, 168 h
[6] = test system: PC-3; assay: Cytotoxicity against human PC3 cells measured on day 7 by MTT assay; type: functional, cell-based; details: for IC50: Homo sapiens, PC-3, 168 h
[7] = Chemical stability of the compound in phosphate buffer up to 5 days at pH 7.4 by HPLC analysis; type: physicochemical; details: phosphate buffer, pH 7.4; read-out: Stability
[8] = Prodrug activation in phosphate buffer assessed as emetine formation up to 48 hrs at pH 5.5 by HPLC analysis; details: pH 5.5, 48 h
[9] = test system: LNCaP; assay: Cytotoxicity against human LNCAP cells measured on day 3 by MTT assay; type: functional, cell-based
[10] = test system: LNCaP; assay: Cytotoxicity against human LNCAP cells measured on day 5 by MTT assay; type: functional, cell-based
[11] = test system: PC-3; assay: Cytotoxicity against human PC3 cells by MTT assay; type: functional, cell-based; details: TDE = time-dependent effect
[12] = test system: DU-145; assay: Cytotoxicity against human DU145 cells by MTT assay; type: functional, cell-based; details: TDE = time-dependent effect
[13] = test system: Mus musculus; assay: Toxicity in Balb/c mouse assessed as weight loss at 33 mg/kg, iv qd administered as bolus for 5 days measured within 48 hrs relative to untreated control; type: organism-based; design: dose 33 mg/kg, route intravenous; details: in vivo
[14] = test system: DU-145; assay: Cytotoxicity against human DU145 cells measured on day 3 by MTT assay; type: functional, cell-based
[15] = test system: Mus musculus; assay: Toxicity in Balb/c mouse assessed as lethargy at 33 mg/kg, iv qd administered as bolus for 5 days measured within 48 hrs; type: organism-based; design: dose 33 mg/kg, route intravenous; details: in vivo
[16] = test system: LNCaP; assay: Cytotoxicity against human LNCAP cells by MTT assay; type: functional, cell-based; details: TDE = time-dependent effect
[17] = test system: Mus musculus; assay: Toxicity in Balb/c mouse assessed as mortality at 100 mg/kg, iv administered as bolus measured within 48 hrs; type: organism-based; design: dose 100 mg/kg, route intravenous; details: in vivo
[18] = test system: Mus musculus; assay: Toxicity in Balb/c mouse assessed as mortality at 33 mg/kg, iv qd administered as bolus for 5 days measured up to 5 days; type: organism-based; design: dose 33 mg/kg, route intravenous; details: in vivo, 120 h
[19] = test system: DU-145; assay: Cytotoxicity against human DU145 cells measured on day 5 by MTT assay; type: functional, cell-based
[20] = test system: DU-145; assay: Cytotoxicity against human DU145 cells measured on day 7 by MTT assay; type: functional, cell-based
[21] = test system: Mus musculus; assay: Toxicity in Balb/c mouse assessed as weight loss at 33 mg/kg, iv qd administered as bolus for 5 days measured within 24 hrs (reference value: 1.7%); type: organism-based; design: dose 33 mg/kg, route intravenous; details: in vivo
[22] = test system: Mus musculus; assay: Toxicity in Balb/c mouse assessed as change in body weight at 100 mg/kg, iv qd administered as bolus for 5 days measured within 48 hrs relative to control; type: organism-based; design: dose 100 mg/kg, route intravenous; details: in vivo
[23] = test system: Mus musculus; assay: Toxicity in Balb/c mouse assessed as adverse effects at 100 mg/kg, iv qd administered as bolus for 5 days; type: organism-based; design: dose 100 mg/kg, route intravenous; details: in vivo, 120 h
[24] = test system: PC-3; assay: Ratio of compound IC50 to emetine IC50 for human PC3 cells measured on day 5 at pH 7.4 by MTT assay; type: functional
[25] = test system: PC-3; assay: Ratio of compound IC50 to emetine IC50 for human PC3 cells measured on day 5 at pH <7 by MTT assay; type: functional
[26] = test system: Mus musculus; assay: Toxicity in Balb/c mouse assessed as adverse effects at 100 mg/kg, iv qd administered as bolus for 5 days measured up to 3 weeks; type: organism-based; design: dose 100 mg/kg, route intravenous; details: in vivo

**Q.** What does the source list for `CC[C@H]1CN2CCc3cc(OC)c(OC)cc3[C@@H]2C[C@@H]1C[C@@H]1c2cc(OC)c(OC)cc2CCN1C(=O)NCc1ccc(Cl)cc1`?
**A.** Stability [1]: Stable; Activity [2]: Active; Stability [3]: Stable; Activity [4]: Active; IC50 [5]: 5.41 µM; IC50 [6]: 10 µM

**Q.** Which remaining at 120 h [7] does the source give for `CC[C@H]1CN2CCc3cc(OC)c(OC)cc3[C@@H]2C[C@@H]1C[C@@H]1c2cc(OC)c(OC)cc2CCN1C(=O)/C=C\C(=O)[O-].[Na+]` here?
**A.** The remaining at 120 h was 100%.

**Q.** And the Drug metabolism [8]?
**A.** The Drug metabolism was “Active”.

**Q.** And the IC50 [5]?
**A.** The IC50 was 8.9 µM.

**Q.** What about the IC50 [6] of the same molecule?
**A.** Its IC50 is 7.71 µM.

**Q.** For `CC[C@H]1CN2CCc3cc(OC)c(OC)cc3[C@@H]2C[C@@H]1C[C@@H]1c2cc(OC)c(OC)cc2CCN1C(=O)NCc1ccccc1`, which Stability [1] is on record?
**A.** Its Stability is “Stable”.

**Q.** What about the Activity [2] of the same molecule?
**A.** Its Activity is “Active”.

**Q.** What about the Stability [3] of the same molecule?
**A.** The Stability was “Stable”.

**Q.** What about the Activity [4] of the same molecule?
**A.** The Activity was “Active”.

**Q.** What about the IC50 [5] of the same molecule?
**A.** The IC50 was 2.12 µM.

**Q.** What about the IC50 [6] of the same molecule?
**A.** The IC50 was 7.61 µM.

**Q.** Which results are given for `CC[C@H]1CN2CCc3cc(OC)c(OC)cc3[C@@H]2C[C@@H]1C[C@@H]1c2cc(OC)c(OC)cc2CCN1S(=O)(=O)c1ccccc1`?
**A.** Stability [1]: Stable; Stability [3]: Stable; IC50 [5]: 2.26 µM; IC50 [6]: > 10 µM

**Q.** With `CC[C@H]1CN2CCc3cc(OC)c(OC)cc3[C@@H]2C[C@@H]1C[C@@H]1c2cc(OC)c(OC)cc2CCN1C(=O)/C=C\C(=O)O` as the molecule, how does the Activity [2] read?
**A.** The Activity was “Active”.

**Q.** And the Activity [4]?
**A.** Its Activity is “Active”.

**Q.** With `CC[C@H]1CN2CCc3cc(OC)c(OC)cc3[C@@H]2C[C@@H]1C[C@@H]1c2cc(OC)c(OC)cc2CCN1S(=O)(=O)c1ccc(Cl)cc1` as the molecule, how does the Stability [1] read?
**A.** Its Stability is “Stable”.

**Q.** What about the Activity [2] of the same molecule?
**A.** The Activity was “Active”.

**Q.** What about the Stability [3] of the same molecule?
**A.** The Stability was “Stable”.

**Q.** What about the Activity [4] of the same molecule?
**A.** Its Activity is “Active”.

**Q.** And the IC50 [5]?
**A.** Its IC50 is 2.69 µM.

**Q.** What about the IC50 [6] of the same molecule?
**A.** The IC50 was 4.21 µM.

**Q.** For `CC[C@H]1CN2CCc3cc(OC)c(OC)cc3[C@@H]2C[C@@H]1C[C@@H]1c2cc(OC)c(OC)cc2CCN1C(=O)/C=C(/C)C(=O)O`, which Activity [2] is on record?
**A.** Its Activity is “Active”.

**Q.** For `CC[C@H]1CN2CCc3cc(OC)c(OC)cc3[C@@H]2C[C@@H]1C[C@@H]1c2cc(OC)c(OC)cc2CCN1C(=O)OCc1ccccc1`, which Stability [1] is on record?
**A.** The Stability was “Stable”.

**Q.** And the Activity [2]?
**A.** Its Activity is “Active”.

**Q.** What about the Stability [3] of the same molecule?
**A.** Its Stability is “Stable”.

**Q.** What about the Activity [4] of the same molecule?
**A.** Its Activity is “Active”.

**Q.** What about the IC50 [5] of the same molecule?
**A.** The IC50 was 3.24 µM.

**Q.** And the IC50 [6]?
**A.** The IC50 was 6.07 µM.

**Q.** For `CC[C@H]1CN2CCc3cc(OC)c(OC)cc3[C@@H]2C[C@@H]1C[C@H]1NCCc2cc(OC)c(OC)cc21.Cl.Cl` [EMETINE HYDROCHLORIDE], which Activity [9] is on record?
**A.** Its Activity is “Dose-dependent effect”.

**Q.** And the IC50 ([9]; 72 h)?
**A.** Its IC50 is 0.0379 µM.

**Q.** What about the Activity [10] of the same molecule?
**A.** Its Activity is “Dose-dependent effect”.

**Q.** And the Activity [11]?
**A.** Its Activity is “tde”.

**Q.** And the Activity [12]?
**A.** Its Activity is “tde”.

**Q.** What about the Activity [13] of the same molecule?
**A.** Its Activity is 3.6%.

**Q.** And the Activity [14]?
**A.** Its Activity is “Dose-dependent effect”.

**Q.** What about the IC50 ([14]; DU-145, 72 h) of the same molecule?
**A.** The IC50 was 0.0329 µM.

**Q.** And the Activity [2]?
**A.** The Activity was “Dose-dependent effect”.

**Q.** And the IC50 ([2]; PC-3, 120 h)?
**A.** Its IC50 is 0.0268 µM.

**Q.** And the Activity [4]?
**A.** Its Activity is “Dose-dependent effect”.

**Q.** And the IC50 ([4]; PC-3, 72 h)?
**A.** Its IC50 is 0.0351 µM.

**Q.** What about the Activity [15] of the same molecule?
**A.** The Activity was “Toxic”.

**Q.** And the Activity [5]?
**A.** The Activity was “Dose-dependent effect”.

**Q.** And the IC50 [5]?
**A.** The IC50 was 0.0316 µM.

**Q.** What about the Activity [16] of the same molecule?
**A.** The Activity was “tde”.

**Q.** And the Activity [17]?
**A.** Its Activity is “Toxic”.

**Q.** What about the Activity [18] of the same molecule?
**A.** The Activity was “Non-toxic”.

**Q.** And the Activity [19]?
**A.** Its Activity is “Dose-dependent effect”.

**Q.** And the IC50 ([19]; DU-145, 120 h)?
**A.** Its IC50 is 0.0253 µM.

**Q.** What about the Activity [20] of the same molecule?
**A.** Its Activity is “Dose-dependent effect”.

**Q.** And the IC50 ([20]; DU-145, 168 h)?
**A.** The IC50 was 0.0237 µM.

**Q.** What about the Activity [6] of the same molecule?
**A.** The Activity was “Dose-dependent effect”.

**Q.** What about the IC50 [6] of the same molecule?
**A.** The IC50 was 0.0294 µM.

**Q.** And the Activity [21]?
**A.** The Activity was 4.5%.

**Q.** Which Stability [1] does the source give for `CC[C@H]1CN2CCc3cc(OC)c(OC)cc3[C@@H]2C[C@@H]1C[C@@H]1c2cc(OC)c(OC)cc2CCN1C(=O)NCc1ccc(OC)cc1` here?
**A.** Its Stability is “Stable”.

**Q.** What about the Activity [2] of the same molecule?
**A.** The Activity was “Active”.

**Q.** And the Stability [3]?
**A.** Its Stability is “Stable”.

**Q.** What about the Activity [4] of the same molecule?
**A.** The Activity was “Active”.

**Q.** And the IC50 [5]?
**A.** Its IC50 is 7.84 µM.

**Q.** And the IC50 [6]?
**A.** Its IC50 is 3.67 µM.

**Q.** For `CC[C@H]1CN2CCc3cc(OC)c(OC)cc3[C@@H]2C[C@@H]1C[C@@H]1c2cc(OC)c(OC)cc2CCN1C(=O)/C=C(/C)C(=O)[O-].[Na+]`, which Activity [22] is on record?
**A.** The Activity was “Non-toxic”.

**Q.** And the Activity [23]?
**A.** The Activity was “Non-toxic”.

**Q.** What about the “Ratio IC50” value [24] of the same molecule?
**A.** The value was 16.8.

**Q.** What about the “Ratio IC50” value [25] of the same molecule?
**A.** Its value is 2.5.

**Q.** What about the remaining at 120 h [7] of the same molecule?
**A.** Its remaining at 120 h is 100%.

**Q.** What about the Activity [26] of the same molecule?
**A.** The Activity was “Non-toxic”.

**Q.** And the Drug metabolism [8]?
**A.** The Drug metabolism was “Active”.

**Q.** What about the IC50 [5] of the same molecule?
**A.** Its IC50 is 0.458 µM.

**Q.** What about the IC50 [6] of the same molecule?
**A.** Its IC50 is 0.428 µM.
